# Laboratory results: US6586425B2, “Cytoskeletal active agents for glaucoma therapy” (Wisconsin Alumni Research Foundation, priority 1996, dated 2003)
# Several values for one entry are separate records, joined by “and”; a condition that tells them apart may be missing. Equal values may be shown once. Read-outs that look alike come from different tables or passages of the source.
# Tests used:
# [1] = tested on: living monkey eyes; assay: Blood-aqueous barrier permeability to systemic fluorescein; type: in vivo, cynomolgus monkeys (Macaca fascicularis); conditions: 42 μg LAT-A topical
# Experimental: Topical LAT-A (42 μg) was given to one eye and vehicle to the opposite eye as described above, 1 hr prior to intravenous injection of fluorescein Na in the saphenous vein (10 mg/kg in 500-600 μl) followed by a 4 ml saline flush. The concentration of fluorescein ([fluorescein]) in the cornea and AC was determined by fluorophotometry 15, 30, 45, 60, 90, 120, 180 and 240 min after fluorescein injection.
# [2] = tested on: living monkey eyes; assay: Slit lamp biomicroscopy (ocular tolerability); type: in vivo, cynomolgus monkeys (Macaca fascicularis); conditions: for corneal endothelial cell borders: one to 5 hr after topical drug
# [3] = tested on: living monkey eyes; assay: Aqueous humor protein concentration (Lowry method); type: in vivo, cynomolgus monkeys (Macaca fascicularis); conditions: for [Protein]AC increase vs contralateral control eyes: 4 μg LAT-B topical, insignificant
# Description: Approximately 5.5 hr after LAT-A and vehicle (25% DMSO) administration, or approximately 6.5 hr after LAT-B and vehicle (25% DMSO) administration, when AHF measurements had been completed, a sample of AH was obtained under a Zeiss surgical microscope, using a 30-gauge needle connected via polyethylene tubing to a tuberculin syringe. The needle was threaded through the corneal stroma for 6 mm, then directed into the AC so that the wound was self-sealing. AH entered the tubing by very gentle suction with the tuberculin syringe; only occasionally was brief mild pressure on the cornea with a needle holder required to promote the initial flow of AH into the tubing via the very thin needle. Approximately 60-80 μl of AH was removed, leaving a shallow but not completely flattened AC. In separate protocols with different monkeys, AH was similarly obtained 2 hr after 42 μg LAT-A or 1 hr after 4 μg LAT-B to one eye and vehicle to the opposite eye. The AH samples were stored at −20° C. for up to 24 hr. The protein concentration in each sample was assayed by the Lowry method, as known in the art (See e.g., Lowry et al., J. Biol. Chem., 193:265-275[1951]; and Peterson et al., Anal. Biochem., 100:201-220[1979]), in duplicate, and the result averaged. Duplicate sets of protein standards containing 0, 1, 3, 5, 10, 20, 40, or 60 μg bovine serum albumin (BSA) were assayed by the same method and results averaged and graphed to give a linear equation that was used to estimate the protein content in the AH samples. The optical density of each sample was measured at 660 nm using a Spectronic 20 Spectrophotometer (Bausch and Lomb).
# [4] = tested on: ciliary muscle-disinserted monkey eyes; assay: Outflow facility in ciliary muscle-disinserted eyes; type: in vivo, cynomolgus and rhesus monkeys
# [5] = tested on: bovine aortic endothelial cells; assay: Actin filaments and C-C adhesions in cultured endothelial cells; type: cell-based
# [6] = tested on: living monkey eye; conditions: living monkeys; cited from earlier work
# [7] = tested on: living monkey eye; type: in vivo, cynomolgus monkeys (Macaca fascicularis); conditions: for (LAT-B/BL)/(Veh/BL) / Facility LAT-B/Vehicle / Facility, LAT-B eye: 2 hr wait
# [8] = tested on: cornea; assay: Corneal thickness by ultrasonic pachymetry; type: in vivo, cynomolgus monkeys (Macaca fascicularis)
# Experimental: Corneal thickness was measured using a DGH-1000 ultrasonic pachymeter (DGH Technology). All eyes were examined by biomicroscopy prior to baseline measurements. Monkeys were placed supine in head holders. The central cornea was measured once and the peripheral cornea was measured four times midway between the center and the limbus on the vertical and horizontal axes. For each point in each eye, two baseline thickness measurements were averaged, and 4.0 μg LAT-B or 25% DMSO was administered to opposite eyes in the LAT-B protocol, or 25% DMSO or Bárány's administered to opposite eyes in the DMSO control protocol. The eyelids were held open manually during and for 5 min. after drug or vehicle administration. Corneal thickness was measured every 30-min. for 6 hr and again at 24 hr.
# [9] = LAT-B 0.8 μg topical, 0-30 min, n=5
# [10] = LAT-B 0.8 μg topical, 30-60 min, n=5
# [11] = LAT-B 0.8 μg topical, 60-90 min, n=5
# [12] = LAT-B 4.0 μg topical, 0-30 min, n=5
# [13] = LAT-B 4.0 μg topical, 30-60 min, n=5
# [14] = LAT-B 4.0 μg topical, 60-90 min, n=5
structure (smiles),measurement,setting,value
C/C1=C/C(=O)O[C@@H]2C[C@@H](CC[C@H](C)/C=C\C=C\CC1)O[C@@](O)([C@@H]1CSC(=O)N1)C2 [LAT-A],"[fluorescein]cornea, LAT-A-treated vs vehicle-treated eyes",[1]; 15 min after i.v. fluorescein (1.25 hr after LAT-A),~10 times
same,"[fluorescein]cornea, LAT-A-treated vs vehicle-treated eyes",[1]; 240 min after i.v. fluorescein,~1.5 times
same,[Fluorescein]AC higher in LAT-A eyes than in vehicle-treated eyes,"[1]; 240 min after i.v. fluorescein, n=4",24±3%
same,recovery of endothelial refractile spots,[2]; higher dose of LAT-A (42 μg),most recovered by 10 hr
same,recovery of endothelial refractile spots,[2]; lower dose of LAT-A (21 μg),recovered almost completely by 6 hr
same,corneal endothelial cell borders,[2],indistinct
same,[Protein]AC vs vehicle-treated eyes,"[3]; 42 μg LAT-A topical, 5.5 hr",no difference in protein concentration
same,[Protein]AC higher than in vehicle-treated eyes,"[3]; 42 μg LAT-A topical, two hr, n=7",25±9%
same,"facility increase, control (non-disinserted) eyes",[4]; Lat-A 5.0 μM,328±35%
same,"Facility PRx, CM Dis eye","[4]; Lat-A 5.0 μM OU, n=9",0.65 ± 0.23 μl/min/mmHg
same,"Facility PRx, CM Dis/Cont","[4]; Lat-A 5.0 μM OU, n=9",0.43 ± 0.15
same,"Facility PRx, Cont (non-disinserted, drug-treated) eye","[4]; Lat-A 5.0 μM OU, n=9",1.51 ± 0.30 μl/min/mmHg
same,"PRx/BL, CM Dis eye","[4]; Lat-A 5.0 μM OU, n=9",4.53 ± 1.29
same,"PRx/BL, CM Dis/Cont","[4]; Lat-A 5.0 μM OU, n=9",1.06 ± 0.27
same,"PRx/BL, Cont (non-disinserted, drug-treated) eye","[4]; Lat-A 5.0 μM OU, n=9",4.28 ± 0.35
same,"facility increase, ciliary muscle-disinserted eyes","[4]; Lat-A 5.0 μM, n=9",353±129%
same,effects on actin filaments and C-C adhesions,"[5]; concentrations greater than 0.5 μM, 1 hour of exposure",unequivocal effects
same,effects on actin filaments and C-C adhesions,[5]; lower concentrations,more subtle slower onset effects
C/C1=C/C(=O)O[C@@H]2C[C@@H](CC[C@H](C)/C=C\CC1)O[C@@](O)([C@@H]1CSC(=O)N1)C2 [LAT-B],potency relative to LAT-A (outflow facility),[6],10 times
same,corneal endothelial cell borders,[2],indistinct
same,initial post-drug facility increase over final baseline value,"[7]; 2 hr after LAT-B 4.0 μg topical, n=5",173±73%
same,"PRxf (final post-drug) facility, LAT-B eye","[7]; LAT-B 0.8 μg Top, n=5",1.54 ± 0.33 μl min^−1 mmHg^−1
same,"PRxf facility, LAT-B/Veh","[7]; LAT-B 0.8 μg Top, n=5",2.82 ± 1.22
same,"PRxf/BLf, LAT-B eye","[7]; LAT-B 0.8 μg Top, n=5",3.78 ± 0.70
same,"PRxf/BLf, LAT-B/Veh","[7]; LAT-B 0.8 μg Top, n=5",2.12 ± 0.64
same,"PRxf/PRxi, LAT-B eye","[7]; LAT-B 0.8 μg Top, n=5",3.41 ± 0.73
same,"PRxf/PRxi, LAT-B/Veh","[7]; LAT-B 0.8 μg Top, n=5",1.50 ± 0.28
same,"PRxi (first post-drug) facility, LAT-B eye","[7]; LAT-B 0.8 μg Top, n=5",0.47 ± 0.08 μl min^−1 mmHg^−1
same,"PRxi facility, LAT-B/Veh","[7]; LAT-B 0.8 μg Top, n=5",1.65 ± 0.38
same,"PRxi/BLf, LAT-B eye","[7]; LAT-B 0.8 μg Top, n=5",1.16 ± 0.11
same,"PRxi/BLf, LAT-B/Veh","[7]; LAT-B 0.8 μg Top, n=5",1.36 ± 0.16
same,(LAT-B/BL)/(Veh/BL),[7]; [9],1.84
same,Facility LAT-B/Vehicle,[7]; [9],2.30
same,"Facility, LAT-B eye",[7]; [9],0.80 μl min^−1 mmHg^−1
same,(LAT-B/BL)/(Veh/BL),[7]; [10],2.59
same,Facility LAT-B/Vehicle,[7]; [10],3.37
same,"Facility, LAT-B eye",[7]; [10],1.35 μl min^−1 mmHg^−1
same,(LAT-B/BL)/(Veh/BL),[7]; [11],2.37
same,Facility LAT-B/Vehicle,[7]; [11],3.14
same,"Facility, LAT-B eye",[7]; [11],1.50 μl min^−1 mmHg^−1
same,"facility increase, averaged over 90 min","[7]; LAT-B 0.8 μg topical, n=5, p=NS",123±67%
same,"PRxf (final post-drug) facility, LAT-B eye","[7]; LAT-B 4.0 μg Top, n=5",2.03 ± 0.31 μl min^−1 mmHg^−1
same,"PRxf facility, LAT-B/Veh","[7]; LAT-B 4.0 μg Top, n=5",3.92 ± 0.58^∥
same,"PRxf/BLf, LAT-B eye","[7]; LAT-B 4.0 μg Top, n=5",6.19 ± 0.48
same,"PRxf/BLf, LAT-B/Veh","[7]; LAT-B 4.0 μg Top, n=5",3.69 ± 0.55^∥
same,"PRxf/PRxi, LAT-B eye","[7]; LAT-B 4.0 μg Top, n=5",3.16 ± 1.08
same,"PRxf/PRxi, LAT-B/Veh","[7]; LAT-B 4.0 μg Top, n=5",1.80 ± 0.53
same,"PRxi (first post-drug) facility, LAT-B eye","[7]; LAT-B 4.0 μg Top, n=5",0.98 ± 0.27 μl min^−1 mmHg^−1
same,"PRxi facility, LAT-B/Veh","[7]; LAT-B 4.0 μg Top, n=5",3.19 ± 1.16
same,"PRxi/BLf, LAT-B eye","[7]; LAT-B 4.0 μg Top, n=5",3.03 ± 0.94
same,"PRxi/BLf, LAT-B/Veh","[7]; LAT-B 4.0 μg Top, n=5",2.73 ± 0.73
same,(LAT-B/BL)/(Veh/BL),[7]; [12],3.68
same,Facility LAT-B/Vehicle,[7]; [12],4.49
same,"Facility, LAT-B eye",[7]; [12],1.64 μl min^−1 mmHg^−1
same,(LAT-B/BL)/(Veh/BL),[7]; [13],4.03
same,Facility LAT-B/Vehicle,[7]; [13],4.74
same,"Facility, LAT-B eye",[7]; [13],2.19 μl min^−1 mmHg^−1
same,(LAT-B/BL)/(Veh/BL),[7]; [14],3.68
same,Facility LAT-B/Vehicle,[7]; [14],4.22
same,"Facility, LAT-B eye",[7]; [14],2.11 μl min^−1 mmHg^−1
same,"facility increase, averaged over 90 min","[7]; LAT-B 4.0 μg topical, n=5",272±45%
same,[Protein]AC increase vs contralateral control eyes,"[3]; 1 hr, n=4",80±51%
same,[Protein]AC increase vs contralateral control eyes,"[3]; 6.5 hr, n=6",11±24%
same,central corneal thickness increase vs contralateral control eyes (maximum),"[8]; 4.0 μg LAT-B topical, 3.5 hr, n=8",~47 μm and 47±17 μm
same,central and peripheral corneal thickness,"[8]; 4.0 μg LAT-B topical, 24 hr",returned to baseline
same,central cornea thicker compared to normal monkey cornea,"[8]; LAT-B, hour 3.5 (maximal change)",~10%
